According to patent US9447140B2, “Cholest-4-en-3-one oxime derivatives, pharmaceutical compositions containing same, and preparation method” (TROPHOS, priority 2008, dated 2016):

Tested on: not listed separately
Experiment: exposure after administration by oral route
Type: in vivo
Conditions: qualitative

Structure (SMILES)	exposure when administered by oral route
CC(C)CCC[C@@H](C)[C@H]1CCC2C3CCC4=C(F)/C(=N/O)CC[C@]4(C)C3CC[C@@]21C (stereo partly drawn) [Example 2b, 3-oxyimino-4-fluoro-cholest-4-ene]	improved exposure

Tested on: rat motor neurons
Experiment: in vitro model of trophic deprivation of rat motor neurons (survival, calcein fluorescence after 3 days)
Type: cell-based
Conditions: Concentration 1 μM, E14 rat motor neurons, Neurobasal medium without neurotrophic factors
Description: Reference can usefully be made to the applicant's patent application WO 0142784 on the culturing of motor neurons of the spinal cord.
The spinal cord of E14 rat embryos is dissected and the ventral part is dissociated by trituration after trypsination.
The motor neurons are separated from the other spinal cells by a known method (Camu et al., 1993, Purification of spinal motoneurons from chicken and rat embryos by immunopanning. In “Immunoselection Strategies for Neural cell culture”, Neuroprotocols: A companion to Methods in Neurosciences 2, 191-199; Henderson et al., 1993, Neutrophins promote motor neuron survival and are present in embryonic limb bud. Nature 363 (6426):266-70).
The cells are centrifuged on a density gradient. The fraction of large cells (the least dense) is enriched with motor neurons. The cells in this fraction are incubated with an anti-p75 antibody, a surface antigen present on the motor neurons.
Secondary antibodies coupled to magnetic beads are added and the mixture of cells is passed through a column in a magnet (Arce et al., 1999 Cardiotrophin-1 requires LIFRbeta to promote survival of mouse motoneurons purified by a novel technique. J. Neurosci Res 55 (1): 119-26). Only the motor neurons are retained: their purity is of the order of 90%.
The motor neurons are seeded at a low density in culture wells on a polyornithine-laminin substrate in a neurobasal medium (GIBCO) supplemented according to Raoul et al., 1999, Programmed cell death of embryonic motoneurons triggered through the Fas death receptor. J Cell Biol 147 (5):1049-62.
Negative controls (absence of trophic factors) and positive controls (in the presence of BDNF (Brain-Derived Neurotrophic Factor) at 1 ng/ml, GDNF (Glial-Derived Neurotrophic Factor) at 1 ng/ml and CNTF (Ciliary Neurotrophic Factor) at 10 ng/ml, marketed by the American company PEPROTECH, Inc. and the company Sigma-Aldrich, are included in each series.
The compounds to be tested are added 60 minutes after seeding and the cultures are maintained at 37° C. under 5% CO2 for 3 days.
The motor neurons have a spontaneous tendency to die in the absence of neurotrophic factors (Pettmann and Henderson, 1998, Neuronal cell death. Neuron 20 (4):633-47). After 3 days, the survival is evaluated by a fluorescence measurement after incubation of the cells in the presence of calcein which becomes fluorescent in living cells.
After 3 days in culture at 37° C., under 5% CO2 and under saturation humidity, up to 50% of the motor neurons initially seeded survive in the medium supplemented with neurotrophic factors, whilst less than 15% of the motor neurons survive in culture medium without added neurotrophic factors.
The neuroprotective activity of the compounds to be tested was evaluated by their ability to prevent the death of the motor neurons when they are added to the Neurobasal medium (GIBCO) in comparison with the survival of the motor neurons in medium with added neurotrophic factors.
This survival rate is expressed by the number of living cells after treatment with the compound to be tested compared with the survival induced by the neurotrophic factors. This ratio can therefore represent the survival percentage due to the compound tested compared with the survival induced by the neurotrophic factors. If the ratio is greater than 0, the effect of the compounds on the survival of the motor neurons is positive.

Structure (SMILES)	Ratio (survival of motor neurons with compound compared with the survival induced by the neurotrophic factors)
CC(CCC[C@@H](C)[C@H]1CC[C@H]2[C@@H]3CCC4=CC(=NO)CC[C@]4(C)[C@H]3CC[C@]12C)N(C)c1ccc([N+](=O)[O-])c2nonc12 (stereo partly drawn) [Example 2h, 3-oxyimino-25-[methyl(7-nitro-2,1,3-benzoxadiazol-4-yl)amino]-27-norcholest-4-ene]	0.66
COC1=C2CC[C@H]3[C@@H]4CC[C@H]([C@H](C)CCCC(C)C)[C@@]4(C)CC[C@@H]3[C@@]2(C)CCC1=NO [Example 2n, 3-oxyimino-4-methoxy-cholest-4-ene]	0.34
CC(C)CCC[C@@H](C)[C@H]1CC[C@H]2[C@@H]3CCC4=CC(=NO)C(C)C[C@]4(C)[C@H]3CC[C@]12C (stereo partly drawn) [Example 2m, 3-oxyimino-2-methyl-cholest-4-ene]	0.42
CC(C)CCC[C@@H](C)[C@H]1CC[C@H]2[C@@H]3CCC4=CC(=NO)CC[C@]4(COC(=O)CCCCC4SCC5NC(=O)NC54)[C@H]3CC[C@]12C (stereo partly drawn) [Example 2l, 3-oxyimino-19-biotinyloxy-cholest-4-ene]	0.32

Same assay, conditions: Concentration 3 μM, E14 rat motor neurons, Neurobasal medium without neurotrophic factors

Structure (SMILES)	Ratio (survival of motor neurons with compound compared with the survival induced by the neurotrophic factors)
CC(C)CCC[C@@H](C)[C@H]1CC[C@H]2[C@@H]3CC(F)C4=CC(=NO)C(F)C[C@]4(C)[C@H]3CC[C@]12C (stereo partly drawn) [Example 2e, 3-oxyimino-2,6-difluoro-cholest-4-ene]	0.37
CC(C)CCC[C@@H](C)[C@H]1CC[C@H]2[C@@H]3CCC4=CC(=NO)CC[C@]4(CO)[C@H]3CC[C@]12C [Example 2k, 3-oxyimino-19-hydroxy-cholest-4-ene]	0.49
CC(C)CCC[C@@H](C)[C@H]1CC[C@H]2[C@@H]3CCC4=CC(=NO)[C@H](F)C[C@]4(C)[C@H]3CC[C@]12C [Example 2f, 3-oxyimino-2α-fluoro-cholest-4-ene]	0.27
CC(C)CCC[C@@H](C)[C@H]1CCC2C3CCC4=C/C(=N/O)C(F)(F)C[C@]4(C)C3CC[C@@]21C (stereo partly drawn) [Example 2d, 3-oxyimino-2,2-difluoro-cholest-4-ene]	0.50
CC(C)CCC[C@@H](C)[C@H]1CCC2C3CCC4=C(F)/C(=N/O)CC[C@]4(C)C3CC[C@@]21C (stereo partly drawn) [Example 2b, 3-oxyimino-4-fluoro-cholest-4-ene]	0.73
CC(CCCC(C)N(C)C(=O)CCCCC1SCC2NC(=O)NC21)C1CCC2C3CCC4=CC(=NO)CCC4(C)C3CCC12C (stereo not drawn) [Example 2i, 3-oxyimino-25-((N-(+)-biotinoyl-N-methyl)amino)-27-norcholest-4-ene]	0.42
CC(C)CCC[C@@H](C)[C@H]1CCC2C3C[C@@H](F)C4=CC(=NO)CC[C@]4(C)C3CC[C@@]21C (stereo partly drawn) [Example 2c, 3-oxyimino-6β-fluoro-cholest-4-ene]	0.50
